Columns and labels:
[1] = organism: Mus musculus; test: Percent change in punch weights [right ear(received drug) -left ear(received vehicle)] was determined in mice at a dose of 1 mg/ear; assay type: functional
[2] = organism: Canis familiaris; test: Inhibition of PKC-dependent neutrophil superoxide burst in dogs; assay type: functional, Canis lupus familiaris
[3] = molecular target: Protein kinase C (PKC); test: Inhibition of Protein kinase C isolated from rat brain
[4] = organism: Mus musculus; test: Anti-inflammatory activity on the mice ears using antiinflammatory assay (TPAEE); assay type: functional

| SMILES | IC50 ([2]; Canis lupus familiaris) [µM] | IC50 [3] [µM] | IC50 [2] [µM] | Change [1] [%] | ED50 [4] [mg ear-1] |
| --- | --- | --- | --- | --- | --- |
| CCCCCCCCCCC#Cc1csc([C@@H](O)[C@@H](N)CO)c1 (racemic) |  |  | 1.5 |  |  |
| CCCCCCCCCCC#Cc1csc([C@@H](O)[C@@H](N)CO)c1.Cl (stereo in doubt; 3a (+/-)) |  | 28.8 |  | -81 | 0.23 |
| CC(=O)O.CCCCCCCCCCC#Cc1cccc([C@@H](O)[C@@H](N)CO)c1 (stereo in doubt; 10 (-)) |  | 21.8 | 2.2 | -74 |  |
| CC(=O)O.CCCCCCCCCCC#Cc1cccc([C@@H](O)[C@@H](N)CO)c1 (stereo in doubt; 11(+)) |  | 19.5 |  |  |  |
| CCCCCCCCCCC#Cc1csc([C@@H](O)[C@@H](N)CO)c1.Cl (stereo in doubt; 18a) |  | 20.1 |  |  |  |

More lines, main results first:

| IC50 ([2]; Canis lupus familiaris) [µM] | IC50 [3] [µM] | IC50 [2] [µM] | SMILES | Change [1] [%] | ED50 [4] [mg ear-1] |
| --- | --- | --- | --- | --- | --- |
| 1.8 | 21.3 |  | CC(=O)O.CCCCCCCCCCC#Cc1ccc([C@@H](O)[C@@H](N)CO)s1 | -81 |  |
|  |  | 1.5 | CC(=O)O.CCCCCCCCCCC#Cc1ccc([C@@H](O)[C@@H](N)CO)s1 (racemic) |  | 0.24 |
| 2.4 |  |  | CC(=O)O.CCCCCCCCCCC#Cc1cccc([C@@H](O)[C@@H](N)CO)c1 (racemic) | -82 | 0.34 |
| 1.3 | 20.1 |  | CCCCCCCCCCC#Cc1csc([C@@H](O)[C@@H](N)CO)c1.O=C(O)CCC(=O)O (stereo in doubt; 18 (-)) | -73 |  |
|  | 23 | 1 | CCCCCCCCCCC#Cc1csc([C@@H](O)[C@@H](N)CO)c1.O=C(O)CCC(=O)O (stereo in doubt; 19 (+)) | -63 |  |
|  | 23 |  | CCCCCCCCCCC#Cc1csc([C@@H](O)[C@@H](N)CO)c1.Cl (stereo in doubt; 19a) |  |  |
| 4.2 |  |  | CCCCCCCCCCCCC/C=C/[C@@H](O)[C@@H](N)CO [SPHINGOSINE] | -74 | 0.31 |

— ChEMBL document CHEMBL1128648, “The enantioselective synthesis and antiinflammatory activity of novel aryl-sphingolipid PKC inhibitors” (Bioorg Med Chem Lett, 1995)
